Experimental data taken from US20250082584A1, “TRANSDERMAL THERAPEUTIC SYSTEM FOR THE TRANSDERMAL ADMINISTRATION OF SELEXIPAG” (LTS LOHMANN THERAPIE-SYSTEME AG, priority 2022, published 2025).

Experiment: Permeation of Selexipag and active metabolite MRE-269 through fresh human skin in modified Keshary-Chien diffusion cells
Assay type: in vitro ADME
Experimental: For determination of Selexipag and the Selexipag derived active metabolite MRE-269 permeated from fresh human skin tissue the following experiment was performed.
Modified Keshary-Chien diffusion cells were used for this experiment, in which fresh human skin was used as barrier between the donor and the acceptor part. The acceptor compartment contained the acceptor medium (0.9% NaCl+3% Vanillin+0.5% Methyl-β-cyclodextrin+30% Acetonitrile in aqua purificata), the donor chamber contained a liquid solution of Selexipag in oleic acid, dipropylene glycol, ethanol and aqua purificata. The liquid solution Composition 1 was applied as suspension, with undissolved Selexipag, whereas Composition 2 was centrifuged prior to application and only the clear centrifugate was applied. The composition of the selexipag-containing coating Compositions 1 and 2 of are summarized below.
Fresh human skin from plastic surgery was used (upper arm, person). […]
The samples of acceptor solution were filtrated with syringe filters and analyzed with HPLC. Quantification of Selexipag was performed with an external standard. […]
After 168 hrs of permeation the diffusion cells were dismantled, and the skin was rinsed with aqua purificata to remove residuals of the liquid solutions. […] The extracts were then diluted with acceptor medium, filtrated and analyzed with HPLC analogue to the permeation samples.

- Onset of release of MRE-269 compared to Selexipag in acceptor medium (FIG. 7 vs FIG. 8) (fresh human skin, acceptor medium, cumulative data): starts slower
Structure (SMILES): CC(C)N(CCCCOCC(=O)O)c1cnc(-c2ccccc2)c(-c2ccccc2)n1 [MRE-269]
- Detection of active metabolite MRE-269 in permeation samples and skin extraction samples (liquid Selexipag solutions (Compositions 1 and 2) on fresh human skin, 500 μm, 32° C., sampling 24-48-120-144-168 hrs, HPLC): detected at each sampling timepoint in all permeation samples as well as in the skin extraction samples
